# Measured values published in patent publication US4851386A, “Method of treating precocious puberty” (Roussel Uclaf, priority 1979, dated 1989).
# Assays:
# [1] = tested on: ovarian steroidogenosis; assay: Inhibitory activity on ovarian steroidogenesis in women with normal menstrual cycles; assay type: in vivo
# Protocol: The inhibitory activity of [D Ser (tbu)^6 des GlyNH2^10 ] LH-RH ethylamide on ovarian steroidogenosis in women was determined on 6 women aged 26 to 35 years with normal and regular menstrual cycles and without prior endocrinal or gynecological problems. The study was conducted for 6 consecutive cycles consisting of 2 pretreatment cycles, 2 treatment cycles and 2 post-treatment cycles. Two drops of a solution containing 500 μg of [D Ser (tbu)^6 des GlyNH2^10 ] LH--RH ethylamide were deposited on each nostril at 8 A.M. and 5 P.M. of a day between the 4th and 9th day after the peak of LH-day 0. Daily blood samples were taken between 4 and 6 P.M. to measure seric levels of LH, FSH, progesterone and estradiol which were determined by radioimmuno-logictests with double antibodies. The antibodies to measure LH and FSH were furnished by the National Pituitory Agency of N.I.H. of Bethesda, Md.
# Estradiol and progesterone were measured with highly specific antibodies developed against 7-(O-carboxymethyl)-oxime of estradiol and 12-(O-carboxymethyl)-oxime of progesterone, respectively [3H] 17β-estradiol and ^125 I-progesterone-12-[O-carboxymethyl)-oxime]used as tracers. The serum was extracted with benzene and the steroids were separated with a LH-20 column before the determination. The radioimmunological results were exploited by the program derived from model II of Rodbard and Lewald as in Example 1 and the statistical significance was measured by the multiple level test of Ducan-Kramer of Example 1. The results are shown in the graphs of sheets 3 to 5 of the Figures.
# [2] = tested on: testicular steroidogensis; assay: Inhibitory activity against testicular steroidogenesis in men in good health, single intranasal administration; assay type: in vivo; conditions: for seric steroid/testosterone level on the fourth day after administration: fourth day (until 6th day)
# Protocol: The inhibitory activity of [D Ser (tbu)^6 des GlyNH2^10 ] LH-RH ethylamide (described in German application Ser. No. 2,438,350) against testicular steroidogensis in men in good health was determined on men in good health aged 30 to 40 years. The said product was administered intranasally at a dose of 500 μg in a few drops of distilled water at 8 A.M. on the third day of the test. For 2 days prior to the treatment and for 6 days after the treatment, samples of blood were taken daily at 8 A.M., 3 P.M. and 10 P.M. On the day of administration of the LH--RH agonist, blood samples were taken at 11 A.M. and 6 P.M.
# The seric concentrations of LH and FSH were measured by radioimmuno-logic dosages with double antibodies and the antibodies for measuring LH and FSH were furnished by the National Pituitary Agency of N.I.H. in Bethesda, Md. The seric concentrations of steroids was measured by radioimmuno-logic dosages in which one ml of serum was extracted with ether and the steroids were separated on a LH-20 column before measuring with radioimmuno-logic dosages. The radioimmuno-logic dosage results were determined by a program derived from model II of Rodbard et al [Second Karolinska Symposium on Research Methods in Reproductive Endrocinology, Diczfalusky Editor, Copenhague (1970), p. 79-103]. The statistical significance was determined by the "multiple level test" of Duncan-Kramer [Kramer, Biometrics, Vol 12 (1956), p. 307]. The results are shown in the graphs on sheet 1 of the Figures filed herewith.
# [3] = 500 μg intranasal at 8 A.M. and 5 P.M. of one day in luteal phase, typical subject (sheet 3)
# [4] = human, single intranasal dose 500 μg
smiles,measurement,setting,value
CCNC(=O)[C@@H]1CCCN1C(=O)[C@H](CCCNC(=N)N)NC(=O)[C@H](CC(C)C)NC(=O)[C@@H](COC(C)(C)C)NC(=O)[C@H](Cc1ccc(O)cc1)NC(=O)[C@H](CO)NC(=O)[C@H](Cc1c[nH]c2ccccc12)NC(=O)[C@H](Cc1c[nH]cn1)NC(=O)[C@@H]1CCC(=O)N1 [[D Ser (tbu)^6 des GlyNH2^10] LH-RH ethylamide],"reduction of seric levels of progesterone compared to controls, first cycle of treatment",[1]; [3],13%
same,"reduction of seric levels of progesterone compared to controls, second cycle of treatment",[1]; [3],34%
same,"progesterone level of post-treatment cycles, pretreatment cycles = 100%",[1]; 12 cycles,99%
same,"progesterone level of treatment cycles, pretreatment cycles = 100%",[1]; 12 cycles,46%
same,"level of progesterone reduced by, compared to the controls","[1]; 12 cycles, sheet 5",46%
same,course of seric progesterone level in the 2 cycles of treatment,"[1]; sheet 4, return to normal for the 2 post-treatment cycles",accelerated diminution
same,duration of the drop of seric levels of testicular steroids (testosterone and precursors),[2]; [4],3 days
same,seric steroid/testosterone level on the fourth day after administration,[2]; [4],return to normal levels
same,seric steroid/testosterone level on the fourth day after administration,"[2]; human, single intranasal dose 500 μg, listed as [D Ser (tbu)^6 des Gly NH2^10 ] LH-RH ethylamide",the level returned to normal
same,overall effect on testicular steroidogenesis,"[2]; man, intranasal 500 μg",inhibition of testicular steroidogenesis
